Data taken from patent US20260201283A1, “SOLVENT COMPOSITION” (Dow Global Technologies LLC, priority 2022, published 2026).
Where two headings read alike, the source gives them in different places.

Tests used:
[1] = at 25° C., literature values as published in Wikipedia, cited from earlier work
[2] = Solvency of solvent compositions for Monomer A and Monomer B (height of solid residue); assay type: physicochemical; settings: for concentration of monomer in the final solution: in each of the samples with solvency of 100% (NMF, IE1, IE2, IE3, IE4)
Method: For every sample, the height of the monomer mixture in the vial was 4 mm. The vials were placed in an oven at 54° C. without agitation for 13 hours. The vials returned to room temperature and were photographed again with the PICA-II instrument. The height of the solid residue was observed. It is considered that the residue (if present) was undissolved Monomer A, undissolved Monomer B, or a mixture thereof. The solvency % of each solvent composition was determined as follows: […]

| SMILES | Water Solubility [1] | concentration of monomer in the final solution [2] | also measured |
| --- | --- | --- | --- |
| NC(N)=O [Urea] | 545 mg/mL |  |  |
| CNC=O [NMF, n-methylformamide, reference compound] |  |  | Solvency (%) ([2]; 0.125 g Monomer A + 0.125 g Monomer B in 2.5 g solvent, 54° C. without agitation for 13 hours, then room temperature): 100%; Quality as solvent for Monomer A and Monomer B ([2]; judgement in words based on Table 4): good solvent |
| CCCCOCCOCCO [DBE, diethylene glycol n-butyl ether] |  |  | Water Solubility ([1]; in words): soluble |
| OCCOc1ccccc1 [POE, 2-phenoxyethanol] | 26 g/kg |  |  |
| O=C1OC(=O)c2cc(Oc3ccc4c(c3)C(=O)OC4=O)ccc21 [Monomer A] |  | 5 % by weight based on the weight of the solvent composition |  |
| Nc1ccc(-c2ccc(N)cc2C(F)(F)F)c(C(F)(F)F)c1 [Monomer B] |  | 5 % by weight based on the weight of the solvent composition |  |
